In patent US7199132B2, “Tropane analogs and methods for inhibition of monoamine transport” (Organix, Inc., priority 2001, dated 2007):
Where two headings read alike, the source gives them in different places.

Assays:
serotonin transporter = molecular target: T1, serotonin transporter (Macaca mulatta, UniProt Q9MYX0); assay: Serotonin transporter assay: inhibition of {3H}citalopram binding in caudate-putamen membranes; design: species or system rhesus or cynomolgus monkey; conditions: IC50 (nM) SERT, monkey caudate-putamen, mean of 2 or more independent experiments in triplicate
T1 construct: The serotonin transporter was assayed in caudate-putamen membranes using conditions similar to those for the dopamine transporter; from tissue; host or cells: caudate-putamen membranes of cynomolgus or rhesus monkey brain

dopamine transporter = molecular target: T2, dopamine transporter (Macaca fascicularis, UniProt Q9GJT6); assay: Dopamine transporter assay: inhibition of {3H}WIN 35,428 binding in caudate-putamen membranes; design: species or system rhesus or cynomolgus monkey; conditions: for SERT/DAT: selectivity ratio IC50 SERT / IC50 DAT; for IC50: inhibition of {3H}WIN 35,428 binding, mean of 2 or more independent experiments in triplicate
T2 construct: The caudate-putamen was dissected from coronal slices and yielded 1.4±0.4 g tissue; Membranes were prepared as described previously; from tissue; host or cells: caudate-putamen membranes of cynomolgus or rhesus monkey brain

[1] = IC50 (nM) DAT, monkey caudate-putamen

T2 sequence (Q9GJT6 whole entry): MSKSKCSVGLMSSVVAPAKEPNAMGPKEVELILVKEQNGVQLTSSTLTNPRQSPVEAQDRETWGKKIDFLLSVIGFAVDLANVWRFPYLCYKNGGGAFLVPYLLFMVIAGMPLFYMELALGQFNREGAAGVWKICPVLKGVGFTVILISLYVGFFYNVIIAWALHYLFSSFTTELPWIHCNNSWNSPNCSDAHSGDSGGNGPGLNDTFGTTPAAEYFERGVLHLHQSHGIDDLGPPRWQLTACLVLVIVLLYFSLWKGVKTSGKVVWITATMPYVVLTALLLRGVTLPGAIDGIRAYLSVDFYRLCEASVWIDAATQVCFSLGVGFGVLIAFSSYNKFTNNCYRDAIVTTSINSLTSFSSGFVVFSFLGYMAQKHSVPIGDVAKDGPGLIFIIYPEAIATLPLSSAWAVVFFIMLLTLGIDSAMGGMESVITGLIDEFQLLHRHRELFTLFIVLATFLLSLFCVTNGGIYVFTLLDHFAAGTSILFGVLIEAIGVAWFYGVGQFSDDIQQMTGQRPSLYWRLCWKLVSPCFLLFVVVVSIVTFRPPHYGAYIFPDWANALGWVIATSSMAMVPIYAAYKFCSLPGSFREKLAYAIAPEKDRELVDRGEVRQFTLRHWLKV
T1 sequence (Q9MYX0 whole entry): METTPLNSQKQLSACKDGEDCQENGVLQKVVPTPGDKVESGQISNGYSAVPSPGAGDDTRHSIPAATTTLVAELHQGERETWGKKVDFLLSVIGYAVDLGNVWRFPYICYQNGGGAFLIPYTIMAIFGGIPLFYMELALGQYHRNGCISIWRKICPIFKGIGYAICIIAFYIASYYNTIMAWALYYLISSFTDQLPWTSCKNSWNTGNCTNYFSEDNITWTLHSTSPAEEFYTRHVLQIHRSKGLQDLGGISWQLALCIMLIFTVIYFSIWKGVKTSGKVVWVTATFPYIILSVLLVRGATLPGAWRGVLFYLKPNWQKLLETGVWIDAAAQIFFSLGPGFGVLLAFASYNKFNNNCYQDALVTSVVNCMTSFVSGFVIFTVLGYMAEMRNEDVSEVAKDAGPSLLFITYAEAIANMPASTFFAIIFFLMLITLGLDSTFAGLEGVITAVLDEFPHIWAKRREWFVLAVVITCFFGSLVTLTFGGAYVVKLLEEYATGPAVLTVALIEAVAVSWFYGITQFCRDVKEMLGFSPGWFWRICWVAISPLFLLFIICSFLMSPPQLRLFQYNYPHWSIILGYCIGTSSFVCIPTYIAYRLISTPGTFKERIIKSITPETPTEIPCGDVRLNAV

| SMILES | IC50 (serotonin transporter) | SERT/DAT (dopamine transporter) | IC50 (dopamine transporter; [1]) | further results |
| --- | --- | --- | --- | --- |
| COC(=O)C1=C(c2ccc(Cl)c(Cl)c2)C[C@@H]2C[C@@H](O)[C@H]1N2C (racemic) [Compound 8a, 2-Carbomethoxy-3-(3,4-dichlorophenyl)-7β-hydroxy-8-methyl-8-azabicyclo{3.2.1}oct-2-ene] | > 6000 nM | – | – | melting point: 130.4 to 132.4 °C |
| COC(=O)C1=C(c2ccc(F)cc2)C[C@@H]2C[C@@H](O)[C@H]1N2C (racemic) [Compound 8c, 2-Carbomethoxy-3-(4-fluorophenyl)-7β-hydroxy-8-methyl-8-azabicyclo{3.2.1}oct-2-ene] | > 10000 nM | 1 | – | – |
| COC(=O)[C@@H]1[C@H]2[C@H](O)C[C@@H](C[C@@H]1c1ccccc1)N2C (racemic) [Compound 15d, 2β-Carbomethoxy-3β-phenyl-7β-hydroxy-8-methyl-8-azabicyclo{3.2.1}octane] | > 10000 nM | – | – | melting point: 165.8 to 167.8 °C |
| COC(=O)C1=C(c2ccccc2)C[C@@H]2CC[C@H]1N2C (relative stereo) [Compound 6d, reference compound] | 28600 nM | 11 | – | – |
| COC(=O)[C@H]1[C@@H](c2ccccc2)C[C@@H]2CC[C@H]1N2C (relative stereo) [Compound 13d, reference compound] | – | – | 65 nM | – |
| COC(=O)[C@@H]1[C@H]2CC[C@@H](C[C@H]1c1ccc3ccccc3c1)N2C (relative stereo) [Compound 16b, reference compound] | – | 10 | 0.57 nM | – |
| COC(=O)[C@@H]1[C@H]2CC[C@@H](C[C@H]1c1ccc(F)cc1)N2C (relative stereo) [Compound 16c, reference compound] | – | 63 | – | – |
| COC(=O)[C@@H]1[C@H]2C[C@H](O)[C@@H](C[C@H]1c1ccc(Cl)c(Cl)c1)N2C (relative stereo) [Compound 17a, 2β-Carbomethoxy-3α-(3,4-dichlorophenyl)-6β-hydroxy-8-methyl-8-azabicyclo{3.2.1}octane] | – | 238 | – | melting point: 129.1 to 131.1 °C |
| COC(=O)[C@@H]1[C@H]2C[C@H](O)[C@@H](C[C@H]1c1ccc(F)cc1)N2C (relative stereo) [Compound 17c, 2β-Carbomethoxy-3α-(4-fluorophenyl)-6β-hydroxy-8-methyl-8-azabicyclo{3.2.1}octane] | – | 8 | – | melting point: 148 to 150 °C |
| COC(=O)[C@@H]1[C@H]2C[C@H](O)[C@@H](C[C@H]1c1ccccc1)N2C (relative stereo) [Compound 17d, 2β-Carbomethoxy-3α-phenyl-6β-hydroxy-8-methyl-8-azabicyclo{3.2.1}octane] | – | >3 | – | melting point: 138 to 140 °C |
| COC(=O)[C@@H]1[C@H]2[C@H](O)C[C@@H](C[C@H]1c1ccc(Cl)c(Cl)c1)N2C (relative stereo) [Compound 18a, 2β-Carbomethoxy-3α-(3,4-dichlorophenyl)-7β-hydroxy-8-methyl-8-azabicyclo{3.2.1}octane] | – | – | – | melting point: 148.5 to 150 °C |
| COC(=O)[C@@H]1[C@H]2[C@H](O)C[C@@H](C[C@H]1c1ccccc1)N2C (relative stereo) [Compound 18d, 2β-Carbomethoxy-3α-phenyl-7β-hydroxy-8-methyl-8-azabicyclo{3.2.1}octane] | – | – | – | melting point: 165 to 167 °C |
| COC(=O)[C@H]1[C@@H](c2ccc(Cl)c(Cl)c2)C[C@@H]2CC(=O)[C@H]1N2C (relative stereo) [Compound 19, 2β-Carbomethoxy-3β-(3,4-dichlorophenyl)-8-methyl-8-azabicyclo{3.2.1}oct-7-one] | 290 nM | – | – | melting point: 84.4 to 86.4 °C |
| COC(=O)[C@@H]1[C@H]2C[C@H](O)[C@@H](C[C@H]1OC(c1ccc(F)cc1)c1ccc(F)cc1)N2C (relative stereo) [Compound 32a, 2β-Carbomethoxy-3α-bis(4-fluorophenyl)methoxy-6β-hydroxy-8-methyl-8-azabicyclo{3.2.1}octane] | 4850 nM | – | – | – |
| COC(=O)C1C(c2ccc(Cl)c(Cl)c2)CC2CC(O)C1N2C (single isomer, unassigned) [(1R)-15a] | 139 nM | 0.05 | 265 to 2690 nM | – |
| COC(=O)C1C(c2ccc(Cl)c(Cl)c2)CC2CC(O)C1N2C (single isomer, unassigned) [(1S)-15a] | 15 nM | 50 | 0.3 to 7.4 nM | fold more selective (DAT vs SERT) than 13a (dopamine transporter; compared with 13a): 25 fold |
| COC(=O)C1C(c2ccc(Cl)c(Cl)c2)CC2CC(O)C1N2C (single isomer, unassigned) [Compound (1R)-18a] | – | – | 265 to 2690 nM | – |
| COC(=O)C1C(c2ccc(Cl)c(Cl)c2)CC2CC(O)C1N2C (single isomer, unassigned) [Compound (1S)-18a] | – | – | 0.3 to 7.4 nM | fold more selective (DAT vs SERT) than 16a (dopamine transporter; compared with 16a): 22 fold; fold more selective (DAT vs SERT) than (1S)-15a (dopamine transporter; compared with (1S)-15a): 32 fold |
| COC(=O)C1=C(c2ccc(Cl)c(Cl)c2)C[C@H]2C[C@H](O)[C@@H]1N2C [(1R)-8a, (1R)-2-Carbomethoxy-3-(3,4-dichlorophenyl)-7β-hydroxy-8-methyl-8-azabicyclo{3.2.1}oct-2-ene] | 1590 nM | – | 265 to 2690 nM | – |
| COC(=O)C1=C(c2ccc(Cl)c(Cl)c2)C[C@@H]2C[C@@H](O)[C@H]1N2C [(1S)-8a, (1S)-2-Carbomethoxy-3-(3,4-dichlorophenyl)-7β-hydroxy-8-methyl-8-azabicyclo{3.2.1}oct-2-ene] | 5370 nM | – | – | – |
| COC(=O)C1=C(c2ccc(Cl)c(Cl)c2)CC2CCC1N2C (stereo not shown) [Compound 6a, reference compound] | 867 nM | 747 | 1.16 nM | – |
| COC(=O)C1=C(c2ccc3ccccc3c2)CC2CCC1N2C (stereo not shown) [Compound 6b, reference compound] | 109 nM | 37 | 2.94 nM | – |
| COC(=O)C1=C(c2ccc(F)cc2)CC2CCC1N2C (stereo not shown) [Compound 6c, reference compound] | 7990 nM | 20 | 408 nM | – |
| COC(=O)[C@H]1[C@@H](c2ccc(Cl)c(Cl)c2)C[C@@H]2CC[C@H]1N2C [Compound 13a, (1R)-3β-(3,4-di-chlorophenyl)-tropane-2β-carboxylic acid methyl ester, reference compound] | 2.47 nM | 2 | – | – |
| COC(=O)C1C(c2ccc3ccccc3c2)CC2CCC1N2C (stereo not shown) [Compound 13b, reference compound] | – | 5 | – | – |
| COC(=O)[C@H]1[C@@H](c2ccc(F)cc2)C[C@@H]2CC[C@H]1N2C [Compound 13c, (1R)-3β-(4-fluorophenyl)tropane-2β-carboxylic acid methyl ester, reference compound] | 160 nM | 15 | 11 nM | – |
| COC(=O)[C@@H]1[C@H]2CC[C@@H](C[C@H]1c1ccc(Cl)c(Cl)c1)N2C [Compound 16a, reference compound] | – | 73 | – | IC50 (dopamine transporter; monkey caudate-putamen, read-out: IC50 (nM) DAT): 0.38 nM |
| COC(=O)C1C(c2ccc(Cl)c(Cl)c2)CC2C[C@@H](O)C1N2C (stereo partly shown) [Compound 33] | 533 nM | – | – | potency at the DAT relative to cocaine (dopamine transporter; compared with cocaine): almost twice as potent as cocaine |
| COC(=O)C1C(c2ccccc2)CC2[C@@H](O)CC1N2C (stereo partly shown) [Compound 34] | > 20000 nM | – | – | inhibition of {3H}WIN 35,428 binding, result in words (dopamine transporter; monkey caudate-putamen): inactive |
